ChEMBL document CHEMBL3779821, “On the enthalpic preference of fragment binding” (Medchemcomm, 2016)

Target: Macrophage metalloelastase (Homo sapiens, UniProt P39900)
Assay: Binding affinity to MMP12 (unknown origin)

Sequence of Macrophage metalloelastase (P39900 whole entry): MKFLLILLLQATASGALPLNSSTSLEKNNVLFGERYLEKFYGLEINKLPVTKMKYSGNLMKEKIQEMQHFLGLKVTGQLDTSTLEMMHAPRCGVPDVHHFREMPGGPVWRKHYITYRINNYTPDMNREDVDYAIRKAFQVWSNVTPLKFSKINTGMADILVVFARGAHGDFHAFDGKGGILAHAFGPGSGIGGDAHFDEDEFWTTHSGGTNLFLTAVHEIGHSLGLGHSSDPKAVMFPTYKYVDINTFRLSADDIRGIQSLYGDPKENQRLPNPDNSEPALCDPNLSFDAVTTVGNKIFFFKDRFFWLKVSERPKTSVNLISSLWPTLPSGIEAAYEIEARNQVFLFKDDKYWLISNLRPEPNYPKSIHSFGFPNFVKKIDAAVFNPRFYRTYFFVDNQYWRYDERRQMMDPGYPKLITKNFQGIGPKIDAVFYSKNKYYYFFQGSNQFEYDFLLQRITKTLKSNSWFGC

Kd [mM] | SMILES
6.11e-05 | O=C(CNS(=O)(=O)c1ccccc1)NO
6.18 | CC(=O)NO [ACETOHYDROXAMIC ACID]
